The test system of assay [1] is C57BL/6J mice. The assay is described as follows: Acetic acid-induced writhing model of inflammatory visceral pain. The following applies: i.p. 6 hours and 30 minutes before 0.9% v/v acetic acid (5 ml/kg); recorded for 30 minutes; KIRA6 25 mg/kg, MKC8866 20 mg/kg, Celecoxib 20 mg/kg; vs vehicle. In kind it is in vivo. As for the experimental part: (§1) All behavioral measurements were performed by a blinded observer before and after surgery (postoperative days 1-21) or acetic acid intraperitoneal injection (15-30 min). Animals were acclimated to the testing devices and/or places for 3 days, and baseline measurements were taken for at least 4 consecutive days before the surgery or acetic acid.
Writhing spontaneous pain behaviors were evaluated after intraperitoneal injection of 0.9% acetic acid (v/v, 5 ml/kg). The number of writhing responses was quantified immediately after acetic acid injection for 30 min in 5 min intervals by an observer blinded to genotype. Writings induced acetic acid are overt stretching behaviors indicative of abdominal pain, a phenomenon that is dependent upon mPGES-1 and PGE2 (Kamei et al. J Biol Chem 279, 33684 (Aug. 6, 2004); Trebino et al. Proc Nat Acad Sci USA 100, 9044 (Jul. 22, 2003)).
(§2) To determine if pharmacological disabling of IRE1α-XBP1 signaling could reduce inflammatory visceral pain, two commercially available inhibitors of IRE1α were employed: the kinase domain-specific inhibitor KIRA6 (25 mg/kg) and the RNAse domain-specific inhibitor MKC8866 (20 mg/kg).
(§3) These inhibitors were independently administered intraperitoneally to C57BL/6J mice 6 hours and 30 minutes before acetic acid injection, and writhing behaviors were recorded for 30 minutes.
(An intraperitoneal irritant provokes the stretching counted in writhing tests.)

Another assay deals with IRE1α-XBP1 signaling. Kind of assay: Xbp1s and Ptges mRNA in peritoneal leukocytes after acetic acid injection (RT-qPCR). Format: in vivo, C57BL/6J mice. Particulars: i.p. 6 hours and 30 minutes before 0.9% v/v acetic acid; KIRA6 25 mg/kg, MKC8866 20 mg/kg; vs vehicle. As for the experimental part:
Total RNA was isolated using RNeasy Mini kit or QIAzol lysis reagent (Qiagen) according to the manufacturer's instructions. RNA (0.1-1 μg) was reverse-transcribed to generate cDNA using the qScript cDNA synthesis kit (Quantabio). Quantitative RT-PCR was performed using PerfeCTa SYBR green fastmix (Quantabio) and TaqMan Universal PCR master mix (Life Technologies) on a QuantStudio 6 Flex real-time PCR system (Applied Biosystems). Normalized gene expression was calculated by comparative threshold cycle method using ACTB or Actb as a control. Xbp1 splicing assays were performed as described by Lee et al. (Proc Natl Acad Sci USA 100, 9946 (Aug. 19, 2003)). PCR products were separated by electrophoresis through a 2.5% agarose gel and visualized by ethidium bromide staining. Primers used in this study are described in Table 9.
as §2, §3
Background: Real-time PCR tracks product formation cycle by cycle.

The subject of assay [2] is C57BL/6J mice. The assay is described as follows: Paw incision model of post-surgical pain, behavioral tests. In kind it is in vivo. The following applies: i.p. 6 hours and 30 minutes before paw incision, KIRA6 25 mg/kg, MKC8866 20 mg/kg; for flinching activity after paw incision / grimace score post-surgery / guarding score post-surgery / hind paw weight bearing distribution after paw incision / mechanical hypersensitivity (mechanical threshold) after paw incision / rearing activity after paw incision: Celecoxib 20 mg/kg, vs vehicle; for post-operative pain behaviors: figure legend. As for the experimental part:
Plantar incision surgery was performed as described by Pogatzki & Raja (Anesthesiology 99, 1023 (October 2003)). Briefly, mice were anesthetized with isoflurane in oxygen (4% induction, 1.5%-2% for maintenance) and the right hind paw was aseptically cleaned with 10% povidone-iodine solution. Then, a 5 mm incision was made in the glabrous hind-paw skin from the heel to the base of the toes using a No. 11 scalpel and sterile technique. The underlying muscle and ligaments were elevated with a curved forceps and stretched for 6-8 seconds, without incising them. The incision was closed using 5.0 nylon mattress sutures.
as §1
Mice were placed in individual acrylic chambers on an elevated mesh floor for 30-45 min before testing. Two spontaneous pain-relate behaviors were evaluated, rearings and paw flinches. Following the acclimatization period, the number of total vertical rearings and paw flinches were quantified during a 2-min period. Vertical rearings were defined as the number of times that the animal stood supporting its weight on both hind limbs. Vertical rearings are a normal behavior in rodents, thus a reduction of this behavior is indicative of a protective way to prevent pain due to movement, which mimics pain induced by surgeries in humans. Spontaneous flinching of the affected paw was quantified every time that the animal shacked the affected paw without any stimulation. Flinches of the injured paw is a pain-related behavior that is indicative of breakthrough pain, similar to intense spontaneous spike of pain in humans with postoperative pain.
Mechanical hypersensitivity was assessed after quantification of vertical rearings and spontaneous flinching. Mechanical withdrawal thresholds were calculated using the up-down method and applying force with calibrated Von Frey filaments (0.07-g, 0.17-g, 0.40-g, 0.60-g, 1.04-g, 1.37-g, and 2.0-g, Stoeling, Wood Dale, Ill., USA) to the plantar aspect of the paw for 5 seconds. Paw withdraws or flinching in response to a given applied force was noted as a positive response.
Hind paw weight bearing distribution was determined using an incapacitance tester apparatus (Stoelting, Ill., version 5.64). This is a test for non-reflexive behaviors that represents a spontaneous pain-related behavior that mimics postoperative pain behaviors in humans (protection of the surgery site from normal activities). Before surgery, animals were habituated for at least 3 days to the apparatus, in which animals stand with each hind paw resting on individual weight plates inside an acrylic chamber. The apparatus measures the body weight distributed between the two hind paws over a 3 second period and provides the average measurement. The average value of each hind paw was used to determine the weight distribution ratio (ispsilateral/contralateral side). A ratio below one indicates a greater weight bearing on the contralateral paw and was therefore considered as a pain-related behavior.
To determine whether pharmacological targeting of IRE1α could also modulate post-surgical pain. KIRA6 (FIG. 9A-9F) or MKC8866 (FIG. 10) was administered i.p. 6 hours and 30 minutes prior to paw incision surgery, and pain responses were monitored thereafter. […] Consistent with our results using conditional IRE1α-deficient mice, mechanical hypersensitivity remained unaltered upon administration of IRE1α inhibitors (FIGS. 9F and 10F). As a positive control, we administered equimolar amounts (20 mg/kg) of Celecoxib following the same scheme and route described above. […]

The structures appear in SMILES notation. Entries after “also recorded” stand apart in the source; their conditions may differ.

`CC(C)(C)c1nc(-c2ccc(NC(=O)Nc3cccc(C(F)(F)F)c3)c3ccccc23)c2c(N)nccn12` [KIRA6]: the “number of writhings after acetic acid injection” value with C57BL/6J mice [1] is given as “reduced; also recorded: decreased”. For the same compound, in the assay with IRE1α-XBP1 signaling, the “Ptges expression in peritoneal leukocytes” value is “significantly reduced” and the “Xbp1s expression in peritoneal leukocytes” value is “significantly reduced”. In the assay on C57BL/6J mice [2], the “flinching activity after paw incision” value was “reduced”, the grimace score post-surgery entry is given as “significantly reduced”, the guarding score post-surgery entry is listed as “significantly reduced” and the “hind paw weight bearing distribution after paw incision” value is recorded as “more balanced”. Also, in the assay on C57BL/6J mice [2], the “mechanical hypersensitivity (mechanical threshold) after paw incision” value was “unaltered”, the “rearing activity after paw incision” value is “unchanged” and the post-operative pain behaviors entry is reported as “reduces”.

Consider `COc1cc2c(C)c(CC(=O)N3CCOCC3)c(=O)oc2c(C=O)c1O` [MKC8866], for which, in the assay on C57BL/6J mice [1], the “number of writhings after acetic acid injection” value is on record as “reduced; also recorded: decreased”. In the assay on IRE1α-XBP1 signaling, the “Ptges expression in peritoneal leukocytes” value is on record as “significantly reduced” and the “Xbp1s expression in peritoneal leukocytes” value was “significantly reduced”. In the assay with C57BL/6J mice [2], the “flinching activity after paw incision” value is reported as “reduced”, the grimace score post-surgery entry was “significantly reduced”, the guarding score post-surgery entry is listed as “significantly reduced” and the “hind paw weight bearing distribution after paw incision” value is “more balanced”. In addition, in the assay on C57BL/6J mice [2], the “mechanical hypersensitivity (mechanical threshold) after paw incision” value is recorded as “unaltered”, the “rearing activity after paw incision” value is recorded as “unchanged” and the post-operative pain behaviors entry is on record as “reduces”.

The values above are taken from US20220160705A1, “METHODS FOR CONTROLLING PROSTAGLANDIN-MEDIATED BIOLOGICAL PROCESSES” (Cornell University, priority 2019, published 2022).
